# Structures can show the parent of a compound that is named as a salt.
# Experiment: in vitro
# Conditions: rat, gh3-tre-luc cells, AC50 (uM) modified / 1000
row,Structure (SMILES),CC50 at 24 h
1,"CC(C)CC(C)Nc1ccc(Nc2ccccc2)cc1 (stereo not drawn) [N-(1,3-Dimethylbutyl)-N'-phenyl-p-phenylenediamine]",39 µM
2,Cc1ccnc2ccccc12 [Lepidine],> 90 µM
3,NS(=O)(=O)c1cc2c(cc1Cl)NCNS2(=O)=O [Hydrochlorothiazide],> 90 µM
4,O=C1CN=C(c2ccccc2)c2cc(Cl)ccc2N1CC1CC1 [Prazepam],> 90 µM
5,Cc1cccc(C)c1NC(=O)c1cc(S(N)(=O)=O)c(Cl)cc1O [Xipamide],> 50 µM
6,COc1cc2nc(N(C)CCCNC(=O)C3CCCO3)nc(N)c2cc1OC (stereo not drawn) [Alfuzosin hydrochloride],> 20 µM
7,O=C(O)Cc1ccc(OCCNC[C@H](O)c2ccccc2)cc1 [ZD 2079],> 50 µM
8,CCc1ccccc1O [2-Ethylphenol],> 90 µM
9,CC(=O)CCC(=O)O [4-Oxopentanoic acid],> 100 µM
10,CN(C)[C@@H]1C(O)=C(C(N)=O)C(=O)[C@@]2(O)C(O)=C3C(=O)c4c(O)cccc4[C@@](C)(O)[C@H]3C[C@@H]12 [Tetracycline],> 90 µM
11,"O=C(Nc1ccc([N+](=O)[O-])cc1)Nc1ccc([N+](=O)[O-])cc1 [4,4'-Dinitrodiphenylurea]",> 50 µM
12,C=CCC1=C(C)C(OC(=O)[C@@H]2[C@@H](C=C(C)C)C2(C)C)CC1=O (stereo partly drawn) [Allethrin],53.2 µM
13,CCCN1CCC[C@@H]2Cc3nc(N)ncc3C[C@H]21 [Quinelorane],> 50 µM
14,CCCC(=O)OCc1ccccc1 [Benzyl butyrate],> 90 µM
15,CCCCCCOCCO [2-Hexyloxyethanol],> 90 µM
16,CCCC(=O)O[C@]1(C(=O)CCl)[C@@H](C)C[C@H]2[C@@H]3CCC4=CC(=O)C=C[C@]4(C)[C@@]3(F)C(=O)C[C@@]21C [Clobetasone butyrate],> 50 µM
17,COc1ccc(/C=N/NC(=O)c2ccncc2)c(C(=O)O)c1OC [Opiniazide],> 50 µM
18,O=C(NCCNCC(O)COc1ccc(O)cc1)N1CCOCC1 (stereo not drawn) [Xamoterol],> 50 µM
19,C/C(C=O)=C\c1ccccc1 [2-Methylcinnamic aldehyde],> 90 µM
20,"Nc1c2c(nc3ccccc13)CCCC2 [1,2,3,4-Tetrahydro-9-acridinamine hydrochloride]",> 90 µM
21,CCOC(=O)c1ncn2c1CN(C)C(=O)c1cc(F)ccc1-2 [Flumazenil],> 50 µM
22,"CCC(C)(O)CCCC(C)C (stereo not drawn) [3,7-Dimethyl-3-octanol]",> 90 µM
23,"CN(C)CCN(C)CCN(C)C [1,1,4,7,7-Pentamethyldiethylenetriamine]",> 90 µM
24,ON(Cc1ccccc1)Cc1ccccc1 [N-Benzyl-N-hydroxy-1-phenylmethanamine],> 90 µM
25,CC(Cl)C(=O)O (stereo not drawn) [2-Chloropropanoic acid],> 100 µM
26,Nc1cccc(Cl)c1 [3-Chloroaniline],> 90 µM

row,Structure (SMILES),CC50 at 24 h
1,O=C(/C=C/c1ccccc1)OC/C=C/c1ccccc1 [3-Phenyl-2-propen-1-yl 3-phenylacrylate],> 90 µM
2,CN [Methylammonium nitrate],> 100 µM
3,CC(C)=CCC[C@](C)(O)[C@@H]1CC=C(C)CC1 [Levomenol],> 90 µM
4,CCCCCC[n+]1ccccc1 [1-Hexylpyridinium bromide],> 90 µM
5,CN(C)CCCN1c2ccccc2Sc2ccc(Cl)cc21 [Chlorpromazine hydrochloride],10.6 µM
6,CCCCCCCCCCCCN(CCO)CCO [Lauryldiethanolamine],14.8 µM
7,CC(=O)c1ccc(C)cc1 [p-Methylacetophenone],> 90 µM
8,COc1cc(Cl)ccc1Oc1ccc(Cl)cc1Cl [Methyl triclosan],60.4 µM
9,CN(C)CC[C@@H](c1ccc(Br)cc1)c1ccccn1 [Dexbrompheniramine maleate],26.6 µM
10,COc1ccc(C[C@@H]2c3cc(OC)c(OC)cc3CC[N@+]2(C)CCC(=O)OCCCCCOC(=O)CC[N@@+]2(C)CCc3cc(OC)c(OC)cc3[C@H]2Cc2ccc(OC)c(OC)c2)cc1OC [Atracurium besylate],> 20 µM
11,FC(F)(F)C(Cl)Br (stereo not drawn) [Halothane],> 90 µM
12,COC(=O)CC(C)CCC=C(C)C (stereo not drawn) [Methyl citronellate],> 90 µM
13,CCOc1ccc(NS(=O)(=O)c2ccc(N)cc2)nn1 [Sulfaethoxypyridazine],> 50 µM
14,CCCCCc1cc(O)c2c(c1)OC(C)(C)[C@@H]1CCC(C)=C[C@@H]21 [Tetrahydrocannabinol],10.9 µM
15,CCCCC(CC)CNCC(CC)CCCC (stereo not drawn) [Bis-2-ethylhexylamine],> 90 µM
16,CCCC(=O)OC[C@@H](OC(=O)CCC)[C@@H](OC(=O)CCC)[C@H](Cn1c2nc(=O)[nH]c(=O)c-2nc2cc(C)c(C)cc21)OC(=O)CCC [Riboflavin tetrabutyrate],> 50 µM
17,O=C1NC2NC(=O)NC2N1 (stereo not drawn) [Glycoluril],> 90 µM
18,CCc1cc(C2=C(C(=O)O)N(c3ccccc3C(F)(F)F)S(=O)(=O)c3ccccc32)cc2c1OCO2 [Fandosentan potassium salt],8.29 µM
19,C=CC(=O)OCCCCCC(C)C [Isooctyl acrylate],> 100 µM
20,CC(O)COC(C)COC(C)CO (stereo not drawn) [Tripropylene glycol],> 90 µM
21,O=c1[nH][nH]c(=O)c2cc([N+](=O)[O-])ccc12 [6-Nitrophthalhydrazide],> 90 µM
22,"CCN(O)CC [N,N-Diethylhydroxylamine]",> 90 µM
23,CNCCC(Oc1ccc(C(F)(F)F)cc1)c1ccccc1 (stereo not drawn) [Fluoxetine hydrochloride],10.3 µM
24,CCC(=O)C1CC(C(C)C)CC=C1C (stereo not drawn) [1-(5-Isopropyl-2-methyl-cyclohex-2-enyl)-propan-1-one],> 90 µM
25,CCCCCCCCCC(=O)O[C@H]1CC[C@H]2[C@@H]3CCC4=CC(=O)CC[C@@H]4[C@H]3CC[C@]12C [Nandrolone decanoate],> 50 µM
26,CC(C)c1ccc(C#N)cc1 [4-Isopropylbenzonitrile],> 90 µM

row,Structure (SMILES),CC50 at 24 h
1,COC(=O)CC(=O)OC [Dimethyl malonate],> 100 µM
2,"C/C=C/C=C/C=O [(2E,4E)-2,4-Hexadienal]",> 90 µM
3,CC(CN1CC(=O)NC(=O)C1)N1CC(=O)NC(=O)C1 (stereo not drawn) [ICRF-159],> 90 µM
4,N#Cc1cc2ccccc2c2ccccc12 [9-Cyanophenanthrene],> 90 µM
5,"Oc1cc(Cl)cc(Cl)c1 [3,5-Dichlorophenol]",> 90 µM
6,O=C(Cl)c1ccccc1[N+](=O)[O-] [2-Nitrobenzoyl chloride],> 90 µM
7,CN(C)/N=N/c1[nH]cnc1C(N)=O [Dacarbazine],> 90 µM
8,"Nc1nc(N)c(N)c(N)n1 [2,4,5,6-Pyrimidinetetramine sulfate (1:1)]",> 90 µM
9,CCCC(=O)N1CCCN(c2nc(N)c3cc(OC)c(OC)cc3n2)CC1 [Bunazosin hydrochloride],> 50 µM
10,C[C@]12CCC(=O)C=C1CC[C@@H]1[C@@H]2[C@@H](O)C[C@@]2(C)[C@H]1CC[C@]2(O)C(=O)COP(=O)(O)O [Hydrocortisone sodium phosphate],> 50 µM
11,CC(=O)Oc1cccc(C(=O)O)c1OC(C)=O [Dipyrocetyl],> 50 µM
12,CNC(=O)ON=CC(C)(C)[S+](C)[O-] (stereo not drawn) [Aldicarb sulfoxide],> 90 µM
13,CC[N+](CC)(CC)CCOC(=O)C(C1CCCC1)C1CCCC1 [Diponium bromide],> 50 µM
14,CNC(=O)c1ccccc1 [N-Methylbenzamide],> 90 µM
15,C=Cc1ccc(OC(C)=O)cc1 [4-Ethenylphenyl acetate],> 90 µM
16,CC(C)N1CCN(c2ccc(OC[C@H]3CO[C@](Cn4cncn4)(c4ccc(Cl)cc4Cl)O3)cc2)CC1 (racemic) [Terconazole],5.35 µM
17,CCCCCCCCC(=O)O [Nonanoic acid],> 90 µM
18,O=c1[nH]c2cc(C(F)(F)F)c(N3CCOCC3)cc2n(CP(=O)(O)O)c1=O [Fanapanel],> 50 µM
19,N=C(N)N/N=C/c1c(Cl)cccc1Cl [Guanabenz],20.8 µM
20,CCCCCCCCCCCCCCCCCC(=O)OCCO [2-Hydroxyethyl octadecanoate],> 50 µM
21,O=C1c2ccccc2C(=O)c2c1ccc(O)c2O [Alizarin],> 50 µM
22,CC(C)(C)c1ccccc1 [tert-Butylbenzene],> 90 µM
23,S=C=Nc1ccccc1 [Phenyl isothiocyanate],> 90 µM
24,Nc1ccc(C(=O)O)c(O)c1 [Sodium 4-aminosalicylate],> 50 µM
25,CCCCCCCCCCCCS [1-Dodecanethiol],> 90 µM
26,Cc1c(C2(c3cc(Br)c(O)c(Br)c3C)OS(=O)(=O)c3ccccc32)cc(Br)c(O)c1Br [Bromcresol green],45.4 µM

# Same assay, conditions: rat, gh3-tre-luc cells, AC50 (uM) modified / 1000, Tox21_110001=Tox21_112447; viability, 1 nM T3 present, 24 h
row,Structure (SMILES),CC50 at 24 h
1,Cc1ccccc1-n1c(CF)nc2ccc(N)cc2c1=O [Afloqualone],> 50 µM

# Same assay, conditions: rat, gh3-tre-luc cells, AC50 (uM) modified / 1000, Tox21_110001=Tox21_112772; viability, 1 nM T3 present, 24 h
row,Structure (SMILES),CC50 at 24 h
1,C[C@]12Cc3nonc3C[C@@H]1CC[C@@H]1[C@@H]2CC[C@@]2(C)[C@H]1CC[C@]2(C)O [Furazabol],25.2 µM

# Same assay, conditions: rat, gh3-tre-luc cells, AC50 (uM) modified / 1000, Tox21_110001=Tox21_200376; viability, 1 nM T3 present, 24 h
row,Structure (SMILES),CC50 at 24 h
1,Nc1ccc(-c2ccccc2)cc1 [4-Biphenylamine],> 90 µM

# Same assay, conditions: rat, gh3-tre-luc cells, AC50 (uM) modified / 1000, Tox21_110001=Tox21_300910; viability, 1 nM T3 present, 24 h
row,Structure (SMILES),CC50 at 24 h
1,COP(=S)(OC)Oc1cc(Cl)c(I)cc1Cl [Iodenphos],> 90 µM

# Same assay, conditions: rat, gh3-tre-luc cells, AC50 (uM) modified / 1000, Tox21_110001=Tox21_301582; viability, 1 nM T3 present, 24 h
row,Structure (SMILES),CC50 at 24 h
1,CCOC(=O)CCN(SN(C)C(=O)Oc1cccc2c1OC(C)(C)C2)C(C)C [Benfuracarb],64 µM

# Same assay, conditions: rat, gh3-tre-luc cells, AC50 (uM) modified / 1000, Tox21_110001=Tox21_302421; viability, 1 nM T3 present, 24 h
row,Structure (SMILES),CC50 at 24 h
1,CC(Cl)COP(=O)(OCC(C)Cl)OCC(C)Cl (stereo not drawn) [Tris(2-chloropropyl) phosphate],> 90 µM

# Source: paper PMC6792352, “Limited Chemical Structural Diversity Found to Modulate Thyroid Hormone Receptor in the Tox21 Chemical Library” (Environmental Health Perspectives, 2019)
